Data from PubChem BioAssay (NCI).
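48-hour exposure; five concentrations; linearly interpolated endpoints. TGI is the concentration that stops growth completely.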

What was measured:
Assay in all cases: NCI anticancer screen, dose series, 48 h
786-0 renal = tested on: 786-0 renal
A498 renal = tested on: A498 renal
A549 NSCLC = tested on: A549 NSCLC
ACHN renal = tested on: ACHN renal
BT-549 breast = tested on: BT-549 breast
CAKI-1 renal = tested on: CAKI-1 renal
CCRF-CEM leukemia = tested on: CCRF-CEM leukemia
COLO 205 colon = tested on: COLO 205 colon
DU-145 prostate = tested on: DU-145 prostate
EKVX NSCLC = tested on: EKVX NSCLC
HCC-2998 colon = tested on: HCC-2998 colon
HCT-116 colon = tested on: HCT-116 colon
HCT-15 colon = tested on: HCT-15 colon
HL-60(TB) leukemia = tested on: HL-60(TB) leukemia
HOP-62 NSCLC = tested on: HOP-62 NSCLC
HOP-92 NSCLC = tested on: HOP-92 NSCLC
HS 578T breast = tested on: HS 578T breast
HT29 colon = tested on: HT29 colon
IGROV1 ovarian = tested on: IGROV1 ovarian
K-562 leukemia = tested on: K-562 leukemia
KM12 colon = tested on: KM12 colon
LOX IMVI melanoma = tested on: LOX IMVI melanoma
MALME-3M melanoma = tested on: MALME-3M melanoma
MCF7 breast = tested on: MCF7 breast
MDA-MB-231 breast = tested on: MDA-MB-231 breast
MDA-MB-435 = tested on: MDA-MB-435
MDA-N = tested on: MDA-N
MOLT-4 leukemia = tested on: MOLT-4 leukemia
NCI-H226 lung = tested on: NCI-H226 lung
NCI-H23 lung = tested on: NCI-H23 lung
NCI-H460 lung = tested on: NCI-H460 lung
NCI-H522 lung = tested on: NCI-H522 lung
NCI/ADR-RES ovarian = tested on: NCI/ADR-RES ovarian
OVCAR-3 ovarian = tested on: OVCAR-3 ovarian
OVCAR-4 ovarian = tested on: OVCAR-4 ovarian
OVCAR-5 ovarian = tested on: OVCAR-5 ovarian
OVCAR-8 ovarian = tested on: OVCAR-8 ovarian
PC-3 prostate = tested on: PC-3 prostate
RPMI-8226 leukemia = tested on: RPMI-8226 leukemia
RXF 393 renal = tested on: RXF 393 renal
SF-268 CNS = tested on: SF-268 CNS
SF-295 CNS = tested on: SF-295 CNS
SF-539 CNS = tested on: SF-539 CNS
SK-MEL-28 melanoma = tested on: SK-MEL-28 melanoma
SK-MEL-5 melanoma = tested on: SK-MEL-5 melanoma
SN12C renal = tested on: SN12C renal
SNB-19 CNS = tested on: SNB-19 CNS
SNB-75 CNS = tested on: SNB-75 CNS
SW-620 colon = tested on: SW-620 colon
TK-10 renal = tested on: TK-10 renal
U251 CNS = tested on: U251 CNS
UACC-257 melanoma = tested on: UACC-257 melanoma
UO-31 renal = tested on: UO-31 renal
M14 melanoma = tested on: M14 melanoma
SK-MEL-2 melanoma = tested on: SK-MEL-2 melanoma
SK-OV-3 ovarian = tested on: SK-OV-3 ovarian
SR leukemia = tested on: SR leukemia
UACC-62 melanoma = tested on: UACC-62 melanoma

Measured: TGI

Nc1nc(Cl)c(/C=N\O)c(NCC2(CO)CC(=O)C2)n1
82.1 µM: KM12 colon
55.6 µM: HS 578T breast
70.4 µM: IGROV1 ovarian
not listed: M14 melanoma | SK-MEL-2 melanoma | SK-OV-3 ovarian | SR leukemia | UACC-62 melanoma
> 100 µM: all other assays above

COc1c(C)c(OC)c2c(c1O)[C@@H]1[C@@H]3Cc4c(OC)c(C)c(OC)c(O)c4[C@H](CNC(=O)c4ccc5ccccc5n4)N3[C@@H](C#N)[C@H](C2)N1C
0.00438 µM: MDA-MB-435
0.00592 µM: SK-MEL-28 melanoma
0.000329 µM: SR leukemia
0.00187 µM: NCI-H23 lung
0.00283 µM: MDA-N
0.00236 µM: UACC-62 melanoma
0.00172 µM: BT-549 breast
0.00353 µM: OVCAR-5 ovarian
0.00347 µM: RXF 393 renal
0.0384 µM: CAKI-1 renal
0.00571 µM: NCI-H226 lung
0.00322 µM: HOP-92 NSCLC
> 0.0597 µM: HCT-15 colon
0.0143 µM: SNB-75 CNS
> 0.0514 µM: PC-3 prostate
0.00186 µM: SK-MEL-5 melanoma
0.00585 µM: HCT-116 colon
0.000444 µM: NCI-H522 lung
0.000743 µM: MALME-3M melanoma
0.000858 µM: IGROV1 ovarian
0.00251 µM: SW-620 colon
> 0.0276 µM: MDA-MB-231 breast
0.00741 µM: HS 578T breast
0.0104 µM: HOP-62 NSCLC
0.00774 µM: SF-539 CNS
0.00491 µM: HT29 colon
0.0023 µM: OVCAR-3 ovarian | TK-10 renal
> 0.0296 µM: DU-145 prostate
0.00546 µM: UACC-257 melanoma
0.00791 µM: 786-0 renal
0.000832 µM: SK-MEL-2 melanoma
> 0.052 µM: NCI/ADR-RES ovarian
0.0007 µM: HCC-2998 colon
0.00267 µM: M14 melanoma
> 0.0901 µM: NCI-H460 lung
0.0144 µM: MOLT-4 leukemia
0.00742 µM: OVCAR-4 ovarian
0.0305 µM: SF-268 CNS
0.00227 µM: KM12 colon
0.00411 µM: A498 renal
0.00879 µM: UO-31 renal
> 0.0214 µM: SF-295 CNS
not listed: A549 NSCLC | CCRF-CEM leukemia | EKVX NSCLC | HL-60(TB) leukemia | RPMI-8226 leukemia
> 0.1 µM: all other assays above

COc1cccc(NC(=O)c2c(SC)c(C#N)c(=O)n(N)c2N)c1
98.6 µM: SNB-19 CNS
81.3 µM: SNB-75 CNS
not listed: DU-145 prostate | HL-60(TB) leukemia | NCI-H23 lung | OVCAR-3 ovarian | RPMI-8226 leukemia | UO-31 renal | SR leukemia
> 100 µM: all other assays above
